According to patent publication US6743810B2, “Indol-3-yl derivatives” (Merck Patent GmbH, priority 2000, dated 2004):
Counter-ions that a name gives are not always drawn.

SMILES	melting point
O=C(O)CC(c1ccccc1)c1c[nH]c2cc(OCCCNc3ccccn3)ccc12 (centres unmarked) (as salt: trifluoroacetate) [compound 8, 3-Phenyl-3-{6-[3-(pyridin-2-ylamino)propoxy]indol-3-yl}propionic acid]	232 °C (dec.)
O=C(O)C[C@@H](c1ccccc1)c1c[nH]c2cc(OCCCNc3ccccn3)ccc12 (as salt: salt) [compound 46, (3S)-3-Phenyl-3-{6-[3-(pyridin-2-ylamino)propoxy]indol-3-yl}propionic acid]	137 °C
